This is an account of results in PubChem BioAssay AID1259407 (Chemical Carcinogenesis Research Information System (CCRIS), 2018).

This series relates to CCRIS mutagenicity, Ames/micronucleus/aberration tests. Nature of the series: CCRIS mutagenicity studies.

“Also recorded” adds a separate entry of the source. Active and inactive are the calls of the source. The rule behind the calls is not given here.

For the molecule `C[C@]12CC[C@@H]3c4ccc(O)cc4CC[C@H]3[C@@H]1CC[C@@H]2O`, the mutagenic call is “active; positive (ploidy changes)” (End Point: IN VITRO CHROMOSOMAL ABERRATIONS, Test System: CHINESE HAMSTER CELL DON (22;XY), Metabolic Activation: NONE); “active; positive (structural changes)” (End Point: IN VITRO CHROMOSOMAL ABERRATIONS, Test System: CHO CELLS, Metabolic Activation: NONE); “active; positive (ploidy changes in chromosomes 1, 9, 16); also recorded: active; positive (ploidy changes in chromosomes 7 and 9)” (End Point: IN VITRO CHROMOSOMAL ABERRATIONS, Test System: HUMAN LYMPHOCYTES, Metabolic Activation: NONE, Method: FISH); “inactive; negative” (End Point: IN VITRO CHROMOSOMAL ABERRATIONS, Test System: HUMAN PERIPHERAL LYMPHOCYTES, Metabolic Activation: RAT, LIVER, S-9, AROCLOR 1254); “active; positive” (End Point: IN VITRO CHROMOSOMAL ABERRATIONS, Test System: HUMAN PERIPHERAL LYMPHOCYTES, Metabolic Activation: RAT, LIVER, S-9, PHENOBARBITONE); “active; positive (ploidy changes)” (End Point: IN VITRO CHROMOSOMAL ABERRATIONS, Test System: SYRIAN HAMSTER EMBRYO (SHE) CELLS, Metabolic Activation: NONE). For the same molecule, the mutagenic call was “active; positive” (End Point: IN VITRO MICRONUCLEUS, Test System: HUMAN PERIPHERAL BLOOD LYMPHOCYTES, Metabolic Activation: NONE); “active; positive” (End Point: IN VITRO MICRONUCLEUS, Test System: HUMAN PERIPHERAL LYMPHOCYTES, Metabolic Activation: NONE); “inactive; negative” (End Point: IN VIVO MICRONUCLEUS, Test System: BONE MARROW POLYCHROMATIC ERYTHROCYTES, Species: MOUSE, Strain/Sex: B6C3F1/MALE, FEMALE, Route: IP INJECTION); “inactive; negative” (End Point: IN VIVO MICRONUCLEUS, Test System: BONE MARROW POLYCHROMATIC ERYTHROCYTES, Species: MOUSE, Strain/Sex: B6C3F1/MALE, Route: IP INJECTION); “inactive; negative” (End Point: IN VIVO MICRONUCLEUS, Test System: BONE MARROW POLYCHROMATIC ERYTHROCYTES, Species: MOUSE, Strain/Sex: CBA/MALE, Route: IP); “inactive; negative” (End Point: IN VIVO MICRONUCLEUS, Test System: BONE MARROW POLYCHROMATIC ERYTHROCYTES, Species: RAT, Strain/Sex: F344/MALE, Route: IP INJECTION). The mutagenic call was “inactive; negative” (Test System: AMES SALMONELLA TYPHIMURIUM, Strain/Indicator: TA98, Metabolic Activation: MOUSE, LIVER, S-9, Method: STANDARD PLATE); “inactive; negative” (Test System: AMES SALMONELLA TYPHIMURIUM, Strain/Indicator: TA98, Metabolic Activation: NONE, Method: STANDARD PLATE); “inactive; negative” (Test System: AMES SALMONELLA TYPHIMURIUM, Strain/Indicator: TA98, Metabolic Activation: RAT, LIVER, S-9, AROCLOR 1254, Method: STANDARD PLATE); “inactive; negative” (Test System: AMES SALMONELLA TYPHIMURIUM, Strain/Indicator: TA100, Metabolic Activation: MOUSE, LIVER, S-9, Method: STANDARD PLATE); “inactive; negative” (Test System: AMES SALMONELLA TYPHIMURIUM, Strain/Indicator: TA100, Metabolic Activation: NONE, Method: STANDARD PLATE); “inactive; negative” (Test System: AMES SALMONELLA TYPHIMURIUM, Strain/Indicator: TA100, Metabolic Activation: RAT, LIVER, S-9, AROCLOR 1254, Method: STANDARD PLATE). Further, the mutagenic call (Test System: AMES SALMONELLA TYPHIMURIUM, Strain/Indicator: TA1535, Metabolic Activation: MOUSE, LIVER, S-9, Method: STANDARD PLATE) is “inactive; negative”; the mutagenic call (Test System: AMES SALMONELLA TYPHIMURIUM, Strain/Indicator: TA1535, Metabolic Activation: NONE, Method: STANDARD PLATE) is “inactive; negative”; the mutagenic call (Test System: AMES SALMONELLA TYPHIMURIUM, Strain/Indicator: TA1535, Metabolic Activation: RAT, LIVER, S-9, AROCLOR 1254, Method: STANDARD PLATE) was “inactive; negative”; the mutagenic call (Test System: AMES SALMONELLA TYPHIMURIUM, Strain/Indicator: TA1537, Metabolic Activation: MOUSE, LIVER, S-9, Method: STANDARD PLATE) was “inactive; negative”; the mutagenic call (Test System: AMES SALMONELLA TYPHIMURIUM, Strain/Indicator: TA1537, Metabolic Activation: NONE, Method: STANDARD PLATE) is “inactive; negative”; the mutagenic call (Test System: AMES SALMONELLA TYPHIMURIUM, Strain/Indicator: TA1537, Metabolic Activation: RAT, LIVER, S-9, AROCLOR 1254, Method: STANDARD PLATE) is “inactive; negative”. Also, the mutagenic call is, setting by setting: (Test System: AMES SALMONELLA TYPHIMURIUM, Strain/Indicator: TA1538, Metabolic Activation: MOUSE, LIVER, S-9, Method: STANDARD PLATE) “inactive; negative”; (Test System: AMES SALMONELLA TYPHIMURIUM, Strain/Indicator: TA1538, Metabolic Activation: NONE, Method: STANDARD PLATE) “inactive; negative”; (Test System: AMES SALMONELLA TYPHIMURIUM, Strain/Indicator: TA1538, Metabolic Activation: RAT, LIVER, S-9, AROCLOR 1254, Method: STANDARD PLATE) “inactive; negative”; (Test System: CHINESE HAMSTER V-79, Strain/Indicator: V-79 (HPRT)/6-THIOGUANINE, Metabolic Activation: NONE) “inactive; negative”; (Test System: CHINESE HAMSTER V-79, Strain/Indicator: V-79 (HPRT)/6-THIOGUANINE, Metabolic Activation: NONE, Method: SUSPENSION/PLATE) “active; positive”; (Test System: UDS RAT HEPATOCYTES, Strain/Indicator: THY INCORP (18-20 HR), Metabolic Activation: NONE, Method: LIQUID SCINTILLATION COUNTING) “inactive; negative”.
As to `CC(C)CC=O`, the mutagenic call by setting is: (Test System: AMES SALMONELLA TYPHIMURIUM, Strain/Indicator: TA98, Metabolic Activation: NONE, Method: PREINCUBATION) “inactive; negative”; (Test System: AMES SALMONELLA TYPHIMURIUM, Strain/Indicator: TA98, Metabolic Activation: RAT, LIVER, S-9, AROCLOR 1254, Method: PREINCUBATION) “inactive; negative”; (Test System: AMES SALMONELLA TYPHIMURIUM, Strain/Indicator: TA100, Metabolic Activation: NONE, Method: PREINCUBATION) “inactive; negative”; (Test System: AMES SALMONELLA TYPHIMURIUM, Strain/Indicator: TA100, Metabolic Activation: RAT, LIVER, S-9, AROCLOR 1254, Method: PREINCUBATION) “inactive; negative”; (Test System: AMES SALMONELLA TYPHIMURIUM, Strain/Indicator: TA102, Metabolic Activation: NONE, Method: PREINCUBATION) “inactive; negative”; (Test System: AMES SALMONELLA TYPHIMURIUM, Strain/Indicator: TA102, Metabolic Activation: RAT, LIVER, S-9, AROCLOR 1254, Method: PREINCUBATION) “inactive; negative”.
